According to ChEMBL document CHEMBL3407433, “A high-throughput screen reveals new small-molecule activators and inhibitors of pantothenate kinases” (J Med Chem, 2015):

Experiments:
Pantothenate kinase 3 [1] = molecular target: T1, Pantothenate kinase 3 (Homo sapiens, UniProt Q9H999); test: Inhibition of Pank3 (unknown origin) by Kinase Glo HTS assay
Target sequence in this assay (Q9H999 whole entry): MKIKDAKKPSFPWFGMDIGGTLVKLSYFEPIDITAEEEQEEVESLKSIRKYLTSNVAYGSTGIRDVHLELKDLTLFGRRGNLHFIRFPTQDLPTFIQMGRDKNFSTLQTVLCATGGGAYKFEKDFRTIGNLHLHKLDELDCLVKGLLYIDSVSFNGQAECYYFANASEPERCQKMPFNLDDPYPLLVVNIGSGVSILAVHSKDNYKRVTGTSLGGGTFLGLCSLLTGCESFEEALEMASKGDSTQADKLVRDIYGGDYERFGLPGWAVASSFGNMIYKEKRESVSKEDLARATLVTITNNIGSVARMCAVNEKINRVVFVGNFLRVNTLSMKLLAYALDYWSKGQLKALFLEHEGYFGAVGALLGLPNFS

Pantothenate kinase 1 [2] = molecular target: T2, Pantothenate kinase 1 (Homo sapiens, UniProt Q8TE04); test: Inhibition of Pank1beta (unknown origin) by Kinase Glo HTS assay
Pantothenate kinase 3 [3] = molecular target: T1, Pantothenate kinase 3; test: Activation of Pank3 (unknown origin) by Kinase Glo HTS assay
Target sequence in this assay (Q9H999 whole entry): as above

Pantothenate kinase 3 [4] = molecular target: T1, Pantothenate kinase 3; test: Inhibition of purified human Pank3 using d-[1-14C]pantothenate as substrate after 10 mins by radiochemical enzyme assay
Target sequence in this assay (Q9H999 whole entry): as above

Pantothenate kinase 1 [5] = molecular target: T2, Pantothenate kinase 1; test: Inhibition of purified human Pank1beta using d-[1-14C]pantothenate as substrate after 10 mins by radiochemical enzyme assay
Pantothenate kinase 3 [6] = molecular target: T1, Pantothenate kinase 3
Target sequence in this assay (Q9H999 whole entry, looked up): as the sequence (Q9H999 whole entry) above
Description: Binding affinity to purified human Pank3 assessed as thermal stabilization by thermal shift assay in presence of 2 mM ATP/Mg2+

[7] = molecular target: T3, Pantothenate kinase 2, mitochondrial (Homo sapiens, UniProt Q9BZ23); test: Inhibition of purified human Pank2 using d-[1-14C]pantothenate as substrate after 10 mins by radiochemical enzyme assay
T3 sequence (Q9BZ23 whole entry): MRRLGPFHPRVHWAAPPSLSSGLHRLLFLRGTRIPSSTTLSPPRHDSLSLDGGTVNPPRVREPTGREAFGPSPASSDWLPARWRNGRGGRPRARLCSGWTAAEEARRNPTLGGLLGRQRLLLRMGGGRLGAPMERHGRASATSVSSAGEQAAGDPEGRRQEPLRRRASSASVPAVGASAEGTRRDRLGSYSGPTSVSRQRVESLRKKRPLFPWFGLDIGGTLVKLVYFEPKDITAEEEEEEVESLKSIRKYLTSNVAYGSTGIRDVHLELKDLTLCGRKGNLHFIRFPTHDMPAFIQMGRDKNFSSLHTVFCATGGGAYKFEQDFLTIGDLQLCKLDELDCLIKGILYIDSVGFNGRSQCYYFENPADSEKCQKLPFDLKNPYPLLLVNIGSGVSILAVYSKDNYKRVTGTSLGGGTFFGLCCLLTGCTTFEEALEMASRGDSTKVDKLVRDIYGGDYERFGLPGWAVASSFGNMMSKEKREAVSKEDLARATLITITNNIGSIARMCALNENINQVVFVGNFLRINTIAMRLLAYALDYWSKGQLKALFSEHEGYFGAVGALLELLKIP

T2 sequence (Q8TE04 whole entry): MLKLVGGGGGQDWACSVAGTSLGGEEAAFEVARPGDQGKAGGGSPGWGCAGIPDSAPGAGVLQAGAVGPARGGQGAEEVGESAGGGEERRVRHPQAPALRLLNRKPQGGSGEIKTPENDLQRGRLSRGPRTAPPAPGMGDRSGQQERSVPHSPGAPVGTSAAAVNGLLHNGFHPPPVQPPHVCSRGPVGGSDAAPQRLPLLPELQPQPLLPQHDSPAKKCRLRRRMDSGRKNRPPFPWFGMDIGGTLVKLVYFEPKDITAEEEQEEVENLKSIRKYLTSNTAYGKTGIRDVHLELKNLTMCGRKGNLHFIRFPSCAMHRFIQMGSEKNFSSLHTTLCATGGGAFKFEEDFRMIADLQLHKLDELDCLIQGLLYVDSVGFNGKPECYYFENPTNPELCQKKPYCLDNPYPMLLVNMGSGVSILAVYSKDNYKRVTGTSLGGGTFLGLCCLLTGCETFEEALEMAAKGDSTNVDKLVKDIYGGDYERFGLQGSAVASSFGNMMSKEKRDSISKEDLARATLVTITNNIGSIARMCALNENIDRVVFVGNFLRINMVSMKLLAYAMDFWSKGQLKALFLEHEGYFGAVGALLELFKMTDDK

| Structure (SMILES) | IC50 (Pantothenate kinase 3 [1]) | IC50 (Pantothenate kinase 1 [2]) | further results |
| --- | --- | --- | --- |
| COc1ccc(NC(=O)CCc2c(C)nc3c4cccnc4nn3c2C)cc1 | 11.3 µM | 6.69 µM | – |
| CC(C)c1ccc(NC(=O)CCc2nc(O)c3c4c(sc3n2)CCC4)cc1 | 0.12 µM | – | – |
| Cc1ccc(NC(=O)CCc2c(C)nc3c4cccnc4nn3c2C)cc1 | 25.6 µM | 11.2 µM | – |
| Cc1nc2c3cccnc3nn2c(C)c1CCC(=O)Nc1ccccc1 | 24.5 µM | 0.85 µM | – |
| COc1cccc(NC(=O)CCc2c(C)nc3c4cccnc4nn3c2C)c1 | 1.64 µM | 0.28 µM | – |
| CC(C(=O)Nc1cc(Cl)ccc1Cl)N1CCC(C(=O)NCc2ccccc2)CC1 (stereo not drawn) | – | – | EC50 (Pantothenate kinase 3 [3]): 1.72 µM |
| CC(=O)Nc1ccc(NC(=O)CCc2c(C)nc3c4cccnc4nn3c2C)cc1 | 0.35 µM | 0.64 µM | – |
| COc1ccccc1NC(=O)CCc1c(C)nc2c3cccnc3nn2c1C | > 56 µM | > 56 µM | – |
| CSc1cccc(NC(=O)CCc2c(C)nc3c4cccnc4nn3c2C)c1 | 0.36 µM | 0.14 µM | IC50 (Pantothenate kinase 3 [4]): 0.025 µM; IC50 (Pantothenate kinase 1 [5]): 0.07 µM; Kapp (Pantothenate kinase 3 [6]): 0.3 µM; IC50 [7]: 0.092 µM |
| COc1cccc(CNC(=O)CCc2c(C)nc3c4cccnc4nn3c2C)c1 | > 56 µM | > 56 µM | – |
| Cc1nc2c3cccnc3nn2c(C)c1CCC(=O)NCc1ccc(F)cc1 | > 56 µM | > 56 µM | – |
| CCS(=O)(=O)Nc1ccc(C(=O)NC2CC3CCC2C3)cc1 (stereo not drawn) | 0.18 µM | – | – |
| COC(=O)c1cccc(NC(=O)CCc2c(C)nc3c4cccnc4nn3c2C)c1 | > 56 µM | > 56 µM | – |
| Cc1nc2c3cccnc3nn2c(C)c1CCC(=O)NCc1cccc(F)c1 | 10 µM | 15.8 µM | – |
| CSc1ccc(NC(=O)CCc2c(C)nc3c4cccnc4nn3c2C)cc1 | 10.5 µM | 3.24 µM | – |
| COc1ccc(CNC(=O)CCc2c(C)nc3c4cccnc4nn3c2C)cc1 | 25.8 µM | 14.7 µM | – |
| Cc1nc2c3cccnc3nn2c(C)c1CCC(=O)NCC1CCCCC1 | 40.9 µM | 1.22 µM | – |
| CCN(CC)c1ccc(CNc2nn[nH]n2)cc1 | – | – | EC50 (Pantothenate kinase 3 [3]): 3.43 µM |
| Cc1nc2c3cccnc3nn2c(C)c1CCC(=O)Nc1cccc(C(F)(F)F)c1 | 0.83 µM | 0.19 µM | – |
| Cc1nc2c3cccnc3nn2c(C)c1CCC(=O)Nc1cccc(F)c1 | 0.62 µM | 0.24 µM | – |
| Cc1nc2c3cccnc3nn2c(C)c1CCC(=O)NC1CCCCC1 | > 56 µM | 13.6 µM | – |
| O=C(Cc1ccc(F)cc1)N1CCN(c2nc3c(Cl)cccc3s2)CC1 | – | – | EC50 (Pantothenate kinase 3 [3]): 1.51 µM |
| Cc1cccc(NC(=O)CCc2c(C)nc3c4cccnc4nn3c2C)c1 | 3.84 µM | 1.57 µM | – |
| Cc1ccc(NC(=O)N2CCN(c3ccccc3F)CC2)c(C)c1 | – | – | EC50 (Pantothenate kinase 3 [3]): 2.41 µM |
| Cc1nc2c3cccnc3nn2c(C)c1CCC(=O)N(C)c1ccccc1 | > 56 µM | > 56 µM | – |
| CC(C)CCNC(=O)c1csc(-c2cccc(Cl)c2Cl)n1 | 2.45 µM | – | – |
| Cc1nc2c3cccnc3nn2c(C)c1CCC(=O)Nc1ccccc1F | 13.6 µM | 0.55 µM | – |
| Cc1nc2c3cccnc3nn2c(C)c1CCC(=O)Nc1ccc(F)cc1 | > 56 µM | > 56 µM | – |
